Assay results taken from PMC7582905, “Effect of Disulfide Cyclization of Ultrashort Cationic Lipopeptides on Antimicrobial Activity and Cytotoxicity” (International Journal of Molecular Sciences, 2020).
Where a SMILES comes first, the peptide text is derived from it. Bridges are numbered along the chain shown (N, C = ends). The star is where a group is joined. Palmitoyl = CCCCCCCCCCCCCCCC(=O)*

Key:
[1] = test system: keratinocytes; conditions: reported in the literature; ref [13]; cited from earlier work
Excerpt: However, an identical hemolysis pattern is consistent only with peptides L4, C4, L7, and C7. A common feature of these compounds is the presence of arginine residue in the second and third position, which differentiates them from the rest of compounds used in this study. Overall effect of disulfide cyclization on hemolysis seems to be dependent on arginine(s) position. In general, disulfide cyclization of lipopeptides results in the reduced cytotoxicity a ...

[2] = test system: Candida albicans ATCC 10231; experiment: Transmission electron microscopy (TEM); format: cell-based; conditions: 2 × MIC, 5.0 × 10^6 CFU/mL, 1 h at room temperature
Experimental: TEM was used to examine ultrastructural changes in the Candida albicans ATCC 10231 cells treated with selected lipopeptides (L2, C2, L4, C4) and melittin (positive control). Fungal cells (Candida albicans ATCC 10231) were incubated in RMPI-1640 overnight. The cells were centrifuged (3500 rpm, 7 min) and resuspended in fresh RMPI-1640 medium to obtain dense cell suspension (5.0 × 10^6 CFU/mL). The high cell-density culture was prepared to facilitate TEM observations. Peptides’ concentrations were 2 × MIC. Samples were incubated for 1 h at room temperature. Importantly, MIC of selected peptides (L2, C2, L4, C4, and melittin) were also determined with dense inoculum of yeasts (5.0 × 10^6 CFU/mL). After the treatment, the fungal cells were centrifuged (3500× rpm, 10 min) and washed twice with PBS. Fungal cells were fixed with 2.5% glutaraldehyde buffered at pH 6.5 with 0.1 M sodium cacodylate (Polysciences, Warrington, PA, USA) for 6 h at room temperature. Postfixation was performed with a 1% osmium tetroxide (Polysciences, Warrington, PA, USA) solution for 2 h at 4 °C. The cells were then centrifuged and resuspended in 0.1 M cacodylate buffer (pH 6.5). After re-centrifugation, cells were dehydrated with ethanol. Yeasts were embedded in Epon 812 resin (Sigma-Aldrich) at room temperature. An ultramicrotome Leica UC7 was used to prepare ultrathin sections (55 nm). […]

SMILES	toxicity against keratinocytes [1]	ultrastructural changes in TEM micrographs [2]
CCCCCCCCCCCCCCCC(=O)N[C@@H](CCCCN)C(=O)N[C@@H](CCCCN)C(=O)N[C@@H](CCCCN)C(N)=O [L1, C16-KKK-NH2]	3.2 µg/mL	–
CCCCCCCCCCCCCCCC(=O)N[C@H]1CSSC[C@@H](C(N)=O)NC(=O)[C@H](CCCCN)NC(=O)[C@H](CCCCN)NC(=O)[C@H](CCCNC(=N)N)NC(=O)[C@H](CCCCN)NC1=O [C4, C16-CKRKKC-NH2] (Palmitoyl-CKRKKC-NH2; disulfide 1-6)	–	numerous vesicles are visible inside and outside the cell
